In patent US20190224187A1, “NEW USE OF ISOQUINOLINE DERIVATIVES FOR WOUND HEALING” (ZIH YUAN TANG Biotechnology Co., Ltd, priority 2018, published 2019):

Columns and labels:
[1] = system: AMP-dependent protein kinase (AMPK); conditions: U.S. Pat. No. 9,707,222; cited from earlier work
blood glucose = conditions: U.S. Pat. No. 9,707,222; cited from earlier work
[2] = system: excisional full-thickness square-shaped skin wound; experiment: Effect of salsolinol ointment on excisional full-thickness skin wound healing in guinea pigs; assay type: in vivo; conditions: for recover rate of wound vs vehicle control: another experiment; for wound recovery (wound images) vs vehicle controls: FIG. 3
Procedure: Salsolinol ointments at 0.01 mg/g, 0.03 mg/g and 0.1 mg/g were prepared respectively by dissolving 0.5 mg, 1.5 mg, and 5 mg of salsoinol in 2.5 mL of glycerol (Sigma Inc., MO, USA) plus 1.0 mL of Creagel emulsifier (First Chemical, TPE, Taiwan) and 45.5 mL of distilled water. Vehicle was composed of glycerol (2.5 mL), Creagel emulsifier (1.0 mL), and distilled water (45.5 mL).
Guinea pigs were purchased and were acclimatized at a room temperature, and had free access to water. All experimental procedures were approved by and performed in compliance with the guidelines of the Institutional Animal Care and Use Committee (IACUC). All surgeries were conducted while animals were under continuous anesthesia with 4% isoflurane.
The dorsal skin was shaved and then disinfected with 10% povidone-iodine before an excisional full-thickness square-shaped skin wound (1.0×1.0 cm) was induced using a sterile wound maker. Animals were then housed alone in its cage to avoid any further wound damage.
Animals were randomly divided into six groups (n=5 or 6, each group) as follows: • (1) animals treated with salsolinol at a concentration of 0.01 mg/g (C0.01, n=6); • (2) animal treated with the vehicle (V0.01) as compared with the group C0.01; • (3) animal treated with salsolinol at a concentration of 0.03 mg/g (C0.03, n=5); • (4) animal treated with the vehicle (V0.03) as compared with the group C0.03.
The groups were administered at the same amount of the salsolinol at 0.01 mg/g, and 0.03 mg/g or the vechile at the same amount once daily and the wounds were photopictured on Day 1, Day 3, Day 5, Day 7, Day 10, and Day 14. The sizes of the wounds were analyzed using Visual Basic 6.0. The rate of wound recovery at each experimental time point is calculated by the size of the wound as compared with that of the wound at D1, wherein the rate of wound recovery at Day 1 is 1.0.
In another experiment, the wounds of the guinea pigs were treated with salsolinol at a concentration of 0.001 mg/g, 0.01 mg/g or the vehicle at the same amount once daily and the wounds were photopictured on Day 1, Day 3, Day 5, Day 7, Day 10, and Day 14. The sizes of the wounds were analyzed using Visual Basic 6.0. The recovery rate of the wound at each experimental time point was calculated by the size of the wound as compared with that of the wound at D1, wherein the recover rate of wound at Day 1 is 0.0%.

COc1ccc(C[C@H]2c3cc(O)c(OC)cc3CCN2C)cc1O [reticuline, reference compound]
activation of AMPK [1]: can activate
efficacy in reducing blood glucose (blood glucose): has an efficacy in reducing blood glucose

CC1NCCc2cc(O)c(O)cc21 (stereo not drawn) [salsolinol]
activation of AMPK [1]: can activate
efficacy in reducing blood glucose (blood glucose): has an efficacy in reducing blood glucose
recover rate of wound vs vehicle control ([2]; salsolinol 0.001 mg/g (C0.001) once daily, FIG. 4): better than that of the control group
recover rate of wound vs vehicle control ([2]; salsolinol 0.01 mg/g (C0.01) once daily, after Day 3, p<0.05, FIG. 5): significantly better
wound healing (rate of wound recovery) vs vehicle control ([2]; salsolinol 0.01 mg/g (C0.01) once daily vs V0.01, Day 3, Day 5 and Day 7, p<0.01, FIG. 1): significantly better
wound recovery (wound images) vs vehicle controls ([2]; salsolinol 0.01 mg/g): better than the controls
wound healing (rate of wound recovery) vs vehicle control ([2]; salsolinol 0.03 mg/g (C0.03) once daily vs V0.03, Day 3, p<0.05, FIG. 2): significantly better
wound recovery (wound images) vs vehicle controls ([2]; salsolinol 0.03 mg/g): better than the controls
wound recovery (wound images) vs vehicle controls ([2]; salsolinol 0.1 mg/g): better than the controls
wound recovery vs control groups (summary) ([2]; salsolinol at 0.001 mg/g to 0.03 mg/g, preferably 0.01 mg/g): enhanced the wound recovery
